# Measurements as given in patent US8604024B2, “Compounds for the reduction of beta-amyloid production” (Bristol-Myers Squibb Company, priority 2011, dated 2013).
# Where a name gives a salt, the structure may show the parent alone.
# System: Aβ1-42 production in H4 cells stably transfected with APP751 containing the Swedish mutation
# Test: Cellular assay for inhibition of Aβ1-42 production (H4 APP751 SWE clone 8.20)
# Type: cell-based
# Conditions: 19 h, H4 APP751 SWE clone 8.20 cells, 19 h incubation; read-out: Aβ42 cellular IC50
# Experimental: Cellular Assays for Inhibition of Aβ1-40 and Aβ1-42 Production
# H4 cells stably transfected with APP751 containing the Swedish mutation (H4 APP751 SWE clone 8.20, developed at BMS) were maintained in log phase through twice weekly passage at a 1:20 split. […] Following incubation for 19 h in 5% CO2 at 37° C., plates were briefly centrifuged (1000 rpm, 5 min). A 10 μl aliquot from each well was transferred to a second assay plate (Costar 3709) for Aβ40 measurements. Antibody cocktails were freshly prepared by dilution into 40 mM Tris-HCl (pH 7.4) with 0.2% BSA and added to assay plates. For Aβ42 measurements, antibodies specific for the Aβ42 neoepitope (565, developed at BMS; conjugated to the Wallac reagent (Perkin Elmer)) and the N-terminal sequence of Aβ peptide (26D6, developed at SIBIA; conjugated to APC (Perkin Elmer)) were mixed and 20 μl of the mixture was added to each well of the incubated cell plate yielding a final concentration of 0.8 ng/well 565 and 75 ng/well 26D6. For the Aβ40 measurements, antibodies specific for the Aβ40 neoepitope (TSD, developed at BMS; conjugated to the Wallac reagent (Perkin Elmer)) and 26D6 as described above were mixed and 20 μl of the mixture was added to the 10 μl aliquots which had been removed previously from the cell plate yielding a final concentration of 1.6 ng/well TSD and 17.5 ng/well 26D6. Assay plates containing antibodies were sealed with aluminum foil and incubated overnight at 4° C. Signal was determined using a Viewlux counter (Perkin Elmer) and IC50 values determined using curve fitting in CurveMaster (Excel Fit based).
row,SMILES,IC50
1,"C[C@]12N=C(N)SC[C@H]1CCOc1ccc(-c3cn[nH]c3)cc12 (relative stereo) [Example 24, rel-(4aS,11bS)-11b-methyl-10-(1H-pyrazol-4-yl)-4a,5,6,11b-tetrahydro-4H-benzo[2,3]oxepino[4,5-d][1,3]thiazin-2-amine, bis(2,2,2-trifluoroacetate)]",8100 nM
2,"C[C@]12N=C(N)SC[C@H]1COc1cc(F)c(-c3cncnc3)cc12 (relative stereo) [Example 17, rel-(4aR,10bS)-8-Fluoro-10b-methyl-9-(pyrimidin-5-yl)-4,4a,5,10b-tetrahydrochromeno[4,3-d][1,3]thiazin-2-amine, bis(2,2,2-trifluoroacetate)]",3200 nM
3,"C[C@]12N=C(N)SC[C@H]1CCc1ccc(Br)cc12 (relative stereo) [Example 10, rel-(4aS,10bS)-9-Bromo-10b-methyl-4a,5,6,10b-tetrahydro-4H-naphtho[1,2-d][1,3]thiazin-2-amine]",13000 nM
4,"CC#Cc1cncc(-c2ccc3c(c2)[C@@]2(C)N=C(N)SC[C@H]2CCO3)c1 (relative stereo) [Example 22, rel-(4aS,11bS)-11b-methyl-10-(5-(prop-1-yn-1-yl)pyridin-3-yl)-4a,5,6,11b-tetrahydro-4H-benzo[2,3]oxepino[4,5-d][1,3]thiazin-2-amine, bis(2,2,2-trifluoroacetate)]",960 nM
5,"CC#Cc1cncc(-c2ccc3c(c2)[C@@]2(C)N=C(N)SC[C@H]2CCO3)c1 [Example 22b, (4aS,11bS)-11b-Methyl-10-(5-(prop-1-yn-1-yl)pyridin-3-yl)-4a,5,6,11b-tetrahydro-4H-benzo[2,3]oxepino[4,5-d][1,3]thiazin-2-amine]",1400 nM
6,"COc1ccnc(Nc2ccc3c(c2)[C@@]2(C)N=C(N)SC[C@H]2CCO3)n1 (relative stereo) [Example 42, rel-(4aS,11bS)—N10-(4-Methoxypyrimidin-2-yl)-11b-methyl-4a,5,6,11b-tetrahydro-4H-benzo[2,3]oxepino[4,5-d][1,3]thiazine-2,10-diamine, bis(2,2,2-trifluoroacetate)]",1500 nM
7,"CC#Cc1cncc(-c2ccc3c(c2)[C@]2(C)N=C(N)SC[C@@H]2CCO3)c1 [Example 22a, (4aR,11bR)-11b-Methyl-10-(5-(prop-1-yn-1-yl)pyridin-3-yl)-4a,5,6,11b-tetrahydro-4H-benzo[2,3]oxepino[4,5-d][1,3]thiazin-2-amine]",8200 nM
8,"C[C@]12N=C(N)SC[C@H]1CCCc1ccc(-c3cncc(Cl)c3)cc12 (relative stereo) [Example 13, rel-(4aS,11bS)-10-(5-Chloropyridin-3-yl)-11b-methyl-4,4a,5,6,7,11b-hexahydrobenzo[6,7]cyclohepta[1,2-d][1,3]thiazin-2-amine, bis(2,2,2-trifluoroacetate)]",3100 nM
9,"NC1=N[C@H]2c3cc(-c4cncnc4)ccc3CCC[C@H]2CS1 [Example 1b, (4aR,11bR)-10-Pyrimidin-5-yl-4,4a,5,6,7,11b-hexahydro-3-thia-1-aza-dibenzo[a,c]cyclohepten-2-ylamine]",28000 nM
10,"C[C@]12N=C(N)SC[C@H]1CCOc1ccc(-c3cncc4ccccc34)cc12 (relative stereo) [Example 29, rel-(4aS,11bS)-10-(isoquinolin-4-yl)-11b-methyl-4a,5,6,11b-tetrahydro-4H-benzo[2,3]oxepino[4,5-d][1,3]thiazin-2-amine, bis(2,2,2-trifluoroacetate)]",4600 nM
11,"C[C@]12N=C(N)SC[C@H]1CCOc1ccc(Nc3ncnc4ccccc34)cc12 (relative stereo) [Example 40, rel-(4aS,11bS)-11b-Methyl-N10-(quinazolin-4-yl)-4a,5,6,11b-tetrahydro-4H-benzo[2,3]oxepino[4,5-d][1,3]thiazine-2,10-diamine, bis(2,2,2-trifluoroacetate)]",15000 nM
12,"C[C@]12N=C(N)SC[C@H]1CCCc1ccc(-c3cncnc3)cc12 (relative stereo) [Example 2, rel-(4aS,11bS)-11b-Methyl-10-pyrimidin-5-yl-4,4a,5,6,7,11b-hexahydro-3-thia-1-aza-dibenzo[a,c]cyclohepten-2-ylamine, bis(2,2,2-trifluoroacetate)]",3400 nM
13,"C[C@]12N=C(N)SC[C@H]1CCCc1ccc(-c3cncc(F)c3)cc12 (relative stereo) [Example 14, rel-(4aS,11bS)-10-(5-fluoropyridin-3-yl)-11b-methyl-4,4a,5,6,7,11b-hexahydrobenzo[6,7]cyclohepta[1,2-d][1,3]thiazin-2-amine, bis(2,2,2-trifluoroacetate)]",2100 nM
14,"C[C@]12N=C(N)SC[C@H]1CCCc1cc(F)c(-c3cncnc3)cc12 (relative stereo) [Example 47, rel-(4aS,11bS)-9-fluoro-11b-methyl-10-(pyrimidin-5-yl)-4,4a,5,6,7,11b-hexahydrobenzo[6,7]cyclohepta[1,2-d][1,3]thiazin-2-amine, bis(2,2,2-trifluoroacetate)]",2700 nM
15,"C[C@]12N=C(N)SC[C@H]1CCc1ccc(NC(=O)c3ccc(Cl)cn3)cc12 (relative stereo) [Example 7, rel-N-((4aS,10bS)-2-Amino-10b-methyl-4a,5,6,10b-tetrahydro-4H-naphtho[1,2-d][1,3]thiazin-9-yl)-5-chloropicolinamide, 2,2,2-trifluoroacetate]",1100 nM
16,C[C@]12N=C(N)SC[C@H]1CCCc1ccc(Br)cc12 (relative stereo) [Example 16],2500 nM
17,"NC1=N[C@@H]2c3cc(-c4cncnc4)ccc3CCC[C@@H]2CS1 [Example 1a, (4aS,11bS)-10-Pyrimidin-5-yl-4,4a,5,6,7,11b-hexahydro-3-thia-1-aza-dibenzo[a,c]cyclohepten-2-ylamine]",1900 nM
18,"C[C@]12N=C(N)SC[C@H]1CCOc1ccc(-c3c[nH]c4ccccc34)cc12 (relative stereo) [Example 30, rel-(4aS,11bS)-10-(1H-indol-3-yl)-11b-methyl-4a,5,6,11b-tetrahydro-4H-benzo[2,3]oxepino[4,5-d][1,3]thiazin-2-amine, 2,2,2-trifluoroacetate salt]",16000 nM

# Now from value to molecule:
row,IC50,SMILES
1,2500 nM,"C[C@@]12N=C(N)SC[C@@H]1CCCc1ccc(NC(=O)c3ccc(F)cn3)cc12 [Example 43a, N-((4aR,11bR)-2-Amino-11b-methyl-4,4a,5,6,7,11b-hexahydrobenzo[6,7]cyclohepta[1,2-d][1,3]thiazin-10-yl)-5-fluoropicolinamide]"
2,27 nM,"C[C@]12N=C(N)SC[C@H]1CCCc1ccc(NC(=O)c3ccc(OC(F)F)cn3)cc12 [Example 46a, N-((4aS,11bS)-2-Amino-11b-methyl-4,4a,5,6,7,11b-hexahydrobenzo[6,7]cyclohepta[1,2-d][1,3]thiazin-10-yl)-5-(difluoromethoxy)picolinamide]"
3,3200 nM,"Cc1ncc(-c2ccc3c(c2)[C@@]2(C)N=C(N)SC[C@H]2CCO3)s1 [Example 26b, (4aS,11bS)-11b-Methyl-10-(2-methylthiazol-5-yl)-4a,5,6,11b-tetrahydro-4H-benzo[2,3]oxepino[4,5-d][1,3]thiazin-2-amine]"
4,35 nM,"C[C@]12N=C(N)SC[C@H]1CCOc1ccc(NC(=O)c3ccc(Cl)cn3)cc12 [Example 33a, N-((4aS,11bS)-2-amino-11b-methyl-4a,5,6,11b-tetrahydro-4H-benzo[2,3]oxepino[4,5-d][1,3]thiazin-10-yl)-5-chloropicolinamide]"
5,21 nM,"C[C@]12N=C(N)SC[C@H]1CCCc1ccc(NC(=O)c3ccc(C#N)cn3)cc12 [Example 44b, N-((4aS,11bS)-2-Amino-11b-methyl-4,4a,5,6,7,11b-hexahydrobenzo[6,7]cyclohepta[1,2-d][1,3]thiazin-10-yl)-5-cyanopicolinamide]"

# Same assay, conditions: H4 APP751 SWE clone 8.20 cells, 19 h incubation; read-out: Aβ42 cellular IC50
row,IC50,SMILES
1,6.2 nM,"C[C@]12N=C(N)SC[C@H]1CCOc1ccc(NC(=O)c3ccc(C#N)cn3)cc12 [Example 35b, N-((4aS,11bS)-2-amino-11b-methyl-4a,5,6,11b-tetrahydro-4H-benzo[2,3]oxepino[4,5-d][1,3]thiazin-10-yl)-5-cyanopicolinamide]"
